From patent US10640507B2, “PBD antibacterial agents” (KING'S COLLEGE LONDON, priority 2015, dated 2020)
Values after ≈ are worked out from the molar mass of the structure shown. Read-outs that look alike come from different tables or passages of the source.

Key:
Type in all cases: cell-based
[1] = system: E. faecalis VRE NCTC 12201; experiment: General MIC protocol, Gram positive panel
Procedure: (§1) General Minimum Inhibitory Concentration (MIC) Protocol
(§2) 1. Grow up cultures of bacterial strains to be tested overnight.
(§3) 2. Dilute down overnight cultures to concentration of 1×10^6 bacteria/ml (OD0.01) in Tryptic soy broth (TSB).
(§4) 3. Add 100 μl of TSB media to column 2-column 12 in 96 well plate (keeping column 1 clear).
(§5) 4. Make up compound to a concentration of 64 μg/ml in water (or alternatively to twice the chosen maximum concentration to be tested).
(§6) 5. Add 100 μl of antibiotic solution to the 1st and 2nd columns.
(§7) 6. Using a multichannel pipette take 100 μl from the 2nd column wells and pipette into 3rd column wells and repeat down the 96 well plate (remembering to include controls i.e. uninfected media and media with no antibiotic).
(§8) 7. To each well (except uninfected control row H) add 100 μl of bacterially infected media at a concentration of 1×10^6/ml.
(§9) 8. This dilutes down the concentration of the antibiotic by half (top dose is therefore 32 μg/ml in column 1) and also gives you a starting bacterial concentration of 5×10^5/ml.
(§10) 9. Wrap plate with parafilm to prevent evaporation.
(§11) 10. Leave at desired temperature (37° C. unless specified elsewhere) for 20 hours.
(§12) 11. Next day check plates for growth and measure optical density (i.e. absorbance) at a wavelength of 600 nm (OD600).
(§13) An example of such a plate is shown in FIG. 1 where column A represents wells that receive the top dose 100 μl; column B represents wells that receive the top dose 100 μl+100 μl TSB; and column C represents wells that receive 100 μl TSB. Row H which is marked by a box labelled D represents a blank where the cells receive no bacteria.

E. faecalis VSE NCTC 775 = experiment: General MIC protocol, Gram positive panel; details: Enterococcus faecalis, NCTC775; VSE 775
Procedure: as §1, §2, §3, §4, §5, §6, §7, §8, §9, §10, §11, §12, §13

[2] = system: E. faecium VRE NCTC 12204; experiment: General MIC protocol, Gram positive panel
Procedure: as §1, §2, §3, §4, §5, §6, §7, §8, §9, §10, §11, §12, §13

EMRSA-15 = experiment: General MIC protocol, Gram positive panel
Procedure: as §1, §2, §3, §4, §5, §6, §7, §8, §9, §10, §11, §12, §13

EMRSA-16 = experiment: General MIC protocol, Gram positive panel
Procedure: as §1, §2, §3, §4, §5, §6, §7, §8, §9, §10, §11, §12, §13

[3] = system: methicillin sensitive S. aureus ATTC 9144 (NCTC 6571); experiment: General MIC protocol, Gram positive panel; details: Staphylococcus aureus, MSSA / NCTC 6571; MSSA 9144
Procedure: as §1, §2, §3, §4, §5, §6, §7, §8, §9, §10, §11, §12, §13

A. baumannii AYE = experiment: General MIC protocol, Gram negative; details: Acinetobacter baumannii
Procedure: as §1, §2, §3, §4, §5, §6, §7, §8, §9, §10, §11, §12, §13

A. baumannii NCTC 17978 = experiment: General MIC protocol, Gram negative; details: Acinetobacter baumannii, NCTC17978
Procedure: as §1, §2, §3, §4, §5, §6, §7, §8, §9, §10, §11, §12, §13

K. pneumonia M6 = experiment: General MIC protocol, Gram negative; details: Klebsiella pneumoniae; KP-M6
Procedure: as §1, §2, §3, §4, §5, §6, §7, §8, §9, §10, §11, §12, §13

K. pneumonia NCTC 13368 = experiment: General MIC protocol, Gram negative; details: Klebsiella pneumoniae, NCTC13368
Procedure: as §1, §2, §3, §4, §5, §6, §7, §8, §9, §10, §11, §12, §13

P. aeruginosa NCTC 13437 = experiment: General MIC protocol, Gram negative; details: Pseudomonas aeruginosa, NCTC13437
Procedure: as §1, §2, §3, §4, §5, §6, §7, §8, §9, §10, §11, §12, §13

P. aeruginosa PA01 = experiment: General MIC protocol, Gram negative; details: Pseudomonas aeruginosa, PA01, PA01
Procedure: as §1, §2, §3, §4, §5, §6, §7, §8, §9, §10, §11, §12, §13

[4] = system: HeLa (Cervical cancer cell line); experiment: MTT cytotoxicity assay; details: Homo sapiens, read-out: IC50 HeLa (Cervical cancer cell line)
Procedure: (§14) Two immortalised human cell lines, HeLa and WI38 were used for cytotoxicity screening of the compounds. HeLa is a human cervical cancer cell line and WI38 is a normal healthy cell line. The cell lines were obtained from the American Type Culture Collection. The cell-lines were maintained in monolayer culture in 75 cm2 flasks (TPP, Switzerland) under a humidified 5% CO2 atmosphere at 37° C. The HeLa cell line was maintained in Dulbecco's Modified Eagles Media (DMEM; Invitrogen) supplemented with foetal bovine serum (10% v/v; Invitrogen), L-glutamine (2 mM; Invitrogen), non-essential amino acids (1×; Invitrogen) and Penicillin-Streptomycin (1% v/v, Invitrogen). For WI38, Eagle's Minimum Essential Medium, and Penicillin-Streptomycin (1% v/v, Invitrogen) and foetal bovine serum (10%, nvitrogen) was used. For passaging, cells were washed with phosphate buffered saline [PBS] (GIBCO 14040, Invitrogen, UK), incubated with trypsine (GIBCO 25300, Invitrogen, UK), and re-seeded into fresh medium. For seeding, cells were counted using a Neubauer haemocytometer (Assistant, Germany) by microscopy (Nikon, USA) on a non-adherent suspension of cells that were washed in PBS, trypsinised, centrifuged at 8° C. at 8000 rpm for 5 min and re-suspended in fresh medium.
(§15) The cells were grown in normal cell culture conditions at 37° C. under a 5% CO2 humidified atmosphere using appropriate medium. The cell count was adjusted to 10^5 cells/ml/ and 20,000 cells were added per well. The cells were incubated for 24 hours and 1 μl of the appropriate inhibitor concentrations were to the wells in triplicates. After 24 h of continuous exposure to each compound, the cytotoxicity was determined using the MIT (3-(4,5-Dimethylthiazol-2-yl)-2,5-diphenyltetrazolium bromide) (Lancaster Synthesis Ltd, UK) colorimetric assay. Absorbance was quantified by spectrophotometry at λ=570 nm (Envision Plate Reader, PerkinElmer, USA). IC50 values were calculated by a dose-response analysis using the Prism Graphpad Prism® software. The cytotoxicity results are shown below in Table 12.

WI38 (Healthy cell line) = experiment: MTT cytotoxicity assay; details: Homo sapiens, read-out: IC50 WI38 (Healthy cell line)
Procedure: as §14, §15

[5] = WI-38, MTT, 24 h continuous exposure, highest concentration tested 20 μM

| SMILES | MIC [1] | MIC (E. faecalis VSE NCTC 775) | MIC [2] | MIC (EMRSA-15) | MIC (EMRSA-16) | MIC [3] | MIC (A. baumannii AYE) | MIC (A. baumannii NCTC 17978) | MIC (K. pneumonia M6) | MIC (K. pneumonia NCTC 13368) | MIC (P. aeruginosa NCTC 13437) | MIC (P. aeruginosa PA01) | IC50 ([4]; 24 h) | IC50 (WI38 (Healthy cell line); WI-38, 24 h) | IC50 ([4]; MTT, 24 h continuous exposure) | IC50 (WI38 (Healthy cell line); [5]) |
| --- | --- | --- | --- | --- | --- | --- | --- | --- | --- | --- | --- | --- | --- | --- | --- | --- |
| COc1cc2c(cc1OCCCC(=O)Nc1cc(C(=O)Nc3ccc4oc(C(=O)N5CCOCC5)cc4c3)n(C)c1)N=C[C@@H]1CCCN1C2=O [PP-A147, (S)-4-(4-((7-methoxy-5-oxo-2,3,5,11a-tetrahydro-1H-benzo[e]pyrrolo[1,2-a][1,4]diazepin-8-yl)oxy)butanamido)-1-methyl-N-(2-(morpholine-4-carbonyl)benzofuran-5-yl)-1H-pyrrole-2-carboxamide] | < 0.125 µg/mL | < 0.125 µg/mL | < 0.125 µg/mL | < 0.125 µg/mL | 0.25 µg/mL (≈ 0.366 µM) | < 0.125 µg/mL | 8 µg/mL (≈ 11.7 µM) | 8 µg/mL (≈ 11.7 µM) | 0.5 to 1 µg/mL (≈ 0.732 to 1.46 µM) | 32 to 64 µg/mL (≈ 46.9 to 93.7 µM) | 64 µg/mL (≈ 93.7 µM) | > 128 µg/mL | > 20 µM | > 20 µM |  |  |
| COc1cc2c(cc1OCCCC(=O)Nc1cc(C(=O)Nc3ccc4oc(C(=O)N(C)C)cc4c3)n(C)c1)N=C[C@@H]1CCCN1C2=O [PP-A159, (S)—N-(2-(dimethylcarbamoyl)benzofuran-5-yl)-4-(4-((7-methoxy-5-oxo-2,3,5,11a-tetrahydro-1H-benzo[e]pyrrolo[1,2-a][1,4]-diazepin-8-yl)oxy)butanamido)-1-methyl-1H-pyrrole-2-carboxamide] | 0.5 µg/mL (≈ 0.78 µM) | < 0.125 µg/mL | < 0.125 µg/mL | < 0.125 µg/mL | < 0.125 µg/mL | < 0.125 µg/mL | 4 µg/mL (≈ 6.24 µM) | 4 µg/mL (≈ 6.24 µM) | 0.5 µg/mL (≈ 0.78 µM) | 16 µg/mL (≈ 25 µM) | 32 to 64 µg/mL (≈ 49.9 to 99.9 µM) | 128 µg/mL (≈ 200 µM) |  |  | 18.5 µM | > 20 µM |
| CCOC(=O)c1nc(NC(=O)c2cc3cc(NC(=O)c4cc(NC(=O)CCCOc5cc6c(cc5OC)C(=O)N5CCC[C@H]5C=N6)cn4C)ccc3s2)cn1C [PP-B14, reference compound] | < 0.125 µg/mL | < 0.125 µg/mL | < 0.125 µg/mL | 0.5 µg/mL (≈ 0.64 µM) | 1 µg/mL (≈ 1.28 µM) | < 0.125 µg/mL | 64 µg/mL (≈ 82 µM) | 64 µg/mL (≈ 82 µM) | 128 µg/mL (≈ 164 µM) | 128 µg/mL (≈ 164 µM) | 128 µg/mL (≈ 164 µM) | > 128 µg/mL |  |  |  |  |
| COc1cc2c(cc1OCCCC(=O)Nc1cc(C(=O)Nc3ccc4sc(C(=O)N5CCSCC5)cc4c3)n(C)c1)N=C[C@@H]1CCCN1C2=O [PP-B15, (S)-4-(4-((7-methoxy-5-oxo-2,3,5,11a-tetrahydro-1H-benzo-[e]pyrrolo[1,2-a][1,4]diazepin-8-yl)oxy)butanamido)-1-methyl-N-(2-(thiomorpholine-4-carbonyl)benzo[b]thiophen-5-yl)-1H-pyrrole-2-carboxamide] | < 0.125 µg/mL | < 0.125 µg/mL | < 0.125 µg/mL | < 0.125 µg/mL | < 0.125 µg/mL | < 0.125 µg/mL | 2 µg/mL (≈ 2.8 µM) | 2 µg/mL (≈ 2.8 µM) | > 128 µg/mL | 2 µg/mL (≈ 2.8 µM) | 32 µg/mL (≈ 44.8 µM) | 64 µg/mL (≈ 89.5 µM) |  |  | > 20 µM | > 20 µM |
| COc1cc2c(cc1OCCCC(=O)Nc1cc(C(=O)Nc3ccc4sc(C(=O)N5CCOCC5)cc4c3)n(C)c1)N=C[C@@H]1CCCN1C2=O [PP-B16, (S)-4-(4-((7-methoxy-5-oxo-2,3,5,11a-tetrahydro-1H-benzo[e]pyrrolo[1,2-a][1,4]diazepin-8-yl)oxy)butanamido)-1-methyl-N-(2-(morpholine-4-carbonyl)benzo[b]thiophen-5-yl)-1H-pyrrole-2-carboxamide] | < 0.125 µg/mL | < 0.125 µg/mL | < 0.125 µg/mL | < 0.125 µg/mL | 0.5 µg/mL (≈ 0.716 µM) | < 0.125 µg/mL | 8 µg/mL (≈ 11.4 µM) | 8 µg/mL (≈ 11.4 µM) | 64 µg/mL (≈ 91.6 µM) | 8 µg/mL (≈ 11.4 µM) | 32 µg/mL (≈ 45.8 µM) | 64 µg/mL (≈ 91.6 µM) |  |  | > 20 µM | > 20 µM |
| COC(=O)c1cc(NC(=O)c2cc3cc(NC(=O)c4cc(NC(=O)CCCOc5cc6c(cc5OC)C(=O)N5CCC[C@H]5C=N6)cn4C)ccc3s2)cn1C [PP-B17, reference compound] | < 0.125 µg/mL | < 0.125 µg/mL | < 0.125 µg/mL | < 0.125 µg/mL | 0.25 µg/mL (≈ 0.326 µM) | < 0.125 µg/mL | 32 µg/mL (≈ 41.8 µM) | 8 µg/mL (≈ 10.4 µM) | 128 µg/mL (≈ 167 µM) | 128 µg/mL (≈ 167 µM) | 64 µg/mL (≈ 83.6 µM) | 128 µg/mL (≈ 167 µM) |  |  |  |  |
| COc1cc2c(cc1OCCCC(=O)Nc1cc(C(=O)Nc3ccc4sc(C(=O)N5CCCCC5)cc4c3)n(C)c1)N=C[C@@H]1CCCN1C2=O [PP-B22, (S)-4-(4-((7-methoxy-5-oxo-2,3,5,11a-tetrahydro-1H-benzo-[e]pyrrolo[1,2-a][1,4]diazepin-8-yl)oxy)butanamido)-1-methyl-N-(2-(piperidine-1-carbonyl)benzo[b]thiophen-5-yl)-1H-pyrrole-2-carboxamide] | < 0.125 µg/mL | 0.25 µg/mL (≈ 0.359 µM) | < 0.125 µg/mL | 0.5 µg/mL (≈ 0.718 µM) | 1 µg/mL (≈ 1.44 µM) | < 0.125 µg/mL | 8 µg/mL (≈ 11.5 µM) | 8 µg/mL (≈ 11.5 µM) | 128 µg/mL (≈ 184 µM) | 128 µg/mL (≈ 184 µM) | 64 µg/mL (≈ 91.8 µM) | 128 µg/mL (≈ 184 µM) |  |  | > 20 µM | > 20 µM |
